Test results: patent US9328106B2, “Cyclic ether pyrazol-4-yl-heterocyclyl-carboxamide compounds and methods of use” (Genentech, Inc., priority 2012, dated 2016)
pKi: −log10 of the molar value.

biological target: PIM1 (Homo sapiens (Human), UniProt P11309); assay: biochemical; format: biochemical; conditions: 20 pM PIM1, 1 μM FAM-peptide, 10 μM ATP, 90 minutes at room temperature; read-out: PIM1 LC3K (KI)
Sequence (P11309 whole entry): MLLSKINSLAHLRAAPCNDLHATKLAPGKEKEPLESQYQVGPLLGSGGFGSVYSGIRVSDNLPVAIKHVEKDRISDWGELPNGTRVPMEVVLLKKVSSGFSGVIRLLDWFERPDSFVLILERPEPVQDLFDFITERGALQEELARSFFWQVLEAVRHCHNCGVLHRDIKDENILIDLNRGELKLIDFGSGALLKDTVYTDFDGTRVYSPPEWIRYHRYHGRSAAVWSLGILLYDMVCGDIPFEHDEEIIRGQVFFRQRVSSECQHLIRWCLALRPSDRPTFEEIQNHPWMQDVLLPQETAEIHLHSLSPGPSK

Compound | pKi
Cn1ncc(NC(=O)c2nc(-c3c(F)cccc3F)sc2N)c1[C@H]1CCC(F)[C@@H](N)CO1 (stereo in doubt) [Example 145, 5-Amino-N-[5-[6-amino-5-fluoro-oxepan-2-yl]-1-methyl-pyrazol-4-yl]-2-(2,6-difluorophenyl)thiazole-4-carboxamide] | 9.45
Cn1ncc(NC(=O)c2nc(-c3c(F)cccc3F)sc2N)c1C1CC(F)C(N)CCO1 (centres unmarked) [Example 140, 5-amino-N-(5-(5-amino-4-fluorooxepan-2-yl)-1-methyl-1H-pyrazol-4-yl)-2-(2,6-difluorophenyl)thiazole-4-carboxamide] | 9.33
Cn1ncc(NC(=O)c2csc(-c3cccc(F)c3Cl)n2)c1[C@@H]1CC[C@@H](N)[C@@H](F)CO1 [Example 250, N-(5-((2S,5R,6R)-5-amino-6-fluorooxepan-2-yl)-1-methyl-1H-pyrazol-4-yl)-2-(2-chloro-3-fluorophenyl)thiazole-4-carboxamide] | 9.88
COC1(c2cc(F)c(-c3nc(C(=O)Nc4cnn(C)c4[C@@H]4CC[C@@H](N)[C@@H](F)CO4)ccc3F)c(F)c2)COC1 [Example 203, N-(5-((2S,5R,6R)-5-amino-6-fluorooxepan-2-yl)-1-methyl-1H-pyrazol-4-yl)-6-(2,6-difluoro-4-(3-methoxyoxetan-3-yl)phenyl)-5-fluoropicolinamide] | 9.92
Cn1ncc(NC(=O)c2nc(-c3ccccc3C(F)F)sc2N)c1[C@@H]1CC[C@@H](N)[C@H](F)CO1 [Example 335, 5-amino-N-(5-((2S,5R,6S)-5-amino-6-fluorooxepan-2-yl)-1-methyl-1H-pyrazol-4-yl)-2-(2-(difluoromethyl)phenyl)thiazole-4-carboxamide] | 10.04
Cn1ncc(NC(=O)c2csc(-c3cccc(-c4cccc(Cl)c4F)c3F)n2)c1[C@@H]1CC[C@@H](N)[C@@H](F)CO1 [Example 249, N-(5-((2S,5R,6R)-5-amino-6-fluorooxepan-2-yl)-1-methyl-1H-pyrazol-4-yl)-2-(3′-chloro-2,2′-difluoro-[1,1′-biphenyl]-3-yl)thiazole-4-carboxamide] | 9.27
Cn1ncc(NC(=O)c2csc(-c3c(F)cc(C(C)(C)O)cc3F)n2)c1[C@@H]1CC[C@@H](N)[C@H](F)CO1 [Example 297, N-(5-((2S,5R,6S)-5-amino-6-fluorooxepan-2-yl)-1-methyl-1H-pyrazol-4-yl)-2-(2,6-difluoro-4-(2-hydroxypropan-2-yl)phenyl)thiazole-4-carboxamide] | 10.68
Cn1ncc(NC(=O)c2csc(-c3c(F)cc4c(c3F)OCC4)n2)c1[C@@H]1CC[C@@H](N)[C@H](F)CO1 [Example 391, N-(5-((2S,5R,6S)-5-amino-6-fluorooxepan-2-yl)-1-methyl-1H-pyrazol-4-yl)-2-(5,7-difluoro-2,3-dihydrobenzofuran-6-yl)thiazole-4-carboxamide] | 10.62
Cn1ncc(NC(=O)c2nc(-c3c(F)cccc3F)sc2N)c1C1CC[C@@H](N)[C@@H](F)CO1 (stereo partly drawn) [Example 119, 5-amino-N-(5-((5R,6R)-5-amino-6-fluorooxepan-2-yl)-1-methyl-1H-pyrazol-4-yl)-2-(2,6-difluorophenyl)thiazole-4-carboxamide] | 10.68
Cn1ncc(NC(=O)c2csc(-c3c(F)cc(C4(O)CC4)cc3F)n2)c1[C@@H]1CC[C@@H](N)[C@H](F)CO1 [Example 225, N-(5-((2S,5R,6S)-5-amino-6-fluorooxepan-2-yl)-1-methyl-1H-pyrazol-4-yl)-2-(2,6-difluoro-4-(1-hydroxycyclopropyl)phenyl)thiazole-4-carboxamide] | 10.55
Cn1ncc(NC(=O)c2nc(-c3cc(Cl)ccc3F)sc2N)c1[C@@H]1CC[C@@H](N)[C@H](F)CO1 [Example 291, 5-amino-N-(5-((2S,5R,6S)-5-amino-6-fluorooxepan-2-yl)-1-methyl-1H-pyrazol-4-yl)-2-(5-chloro-2-fluorophenyl)thiazole-4-carboxamide] | 10.74
COc1cc(F)c(-c2nc(C(=O)Nc3cnn(C)c3[C@@H]3CC[C@@H](N)[C@@H](F)CO3)cs2)c(F)c1 [Example 288, N-(5-((2S,5R,6R)-5-amino-6-fluorooxepan-2-yl)-1-methyl-1H-pyrazol-4-yl)-2-(2,6-difluoro-4-methoxyphenyl)thiazole-4-carboxamide] | 10.46
Cc1noc(C)c1-c1nc(C(=O)Nc2cnn(C)c2[C@@H]2CC[C@@H](N)[C@@H](F)CO2)cs1 [Example 244, N-(5-((2S,5R,6R)-5-amino-6-fluorooxepan-2-yl)-1-methyl-1H-pyrazol-4-yl)-2-(3,5-dimethylisoxazol-4-yl)thiazole-4-carboxamide] | 8.22
Cn1ncc(NC(=O)c2nc(-c3c(F)cccc3F)sc2N)c1[C@H]1C[C@H](F)[C@@H](N)CCO1 [Example 137, 5-amino-N-(5-((2R,4S,5S)-5-amino-4-fluorooxepan-2-yl)-1-methyl-1H-pyrazol-4-yl)-2-(2,6-difluorophenyl)thiazole-4-carboxamide] | 10.00
Cc1cccc(F)c1-c1nc(C(=O)Nc2cnn(C)c2[C@@H]2CC[C@@H](N)[C@@H](F)CO2)c(N)s1 [Example 273, 5-amino-N-(5-((2S,5R,6R)-5-amino-6-fluorooxepan-2-yl)-1-methyl-1H-pyrazol-4-yl)-2-(2-fluoro-6-methylphenyl)thiazole-4-carboxamide] | 11.15
Cn1ncc(NC(=O)c2csc(-c3cnn(CC(C)(C)O)c3)n2)c1[C@@H]1CC[C@@H](N)[C@H](F)CO1 [Example 228, N-(5-((2S,5R,6S)-5-amino-6-fluorooxepan-2-yl)-1-methyl-1H-pyrazol-4-yl)-2-(1-(2-hydroxy-2-methylpropyl)-1H-pyrazol-4-yl)thiazole-4-carboxamide] | 9.91
Cn1ncc(NC(=O)c2nc(-c3c(F)cccc3F)sc2N)c1C1CC[C@@H](O)[C@@H](O)CO1 (stereo partly drawn) [Example 111, 5-amino-2-(2,6-difluorophenyl)-N-(5-((5R,6S)-5,6-dihydroxyoxepan-2-yl)-1-methyl-1H-pyrazol-4-yl)thiazole-4-carboxamide] | 9.37
COC(c1cc(F)c(-c2nc(C(=O)Nc3cnn(C)c3[C@@H]3CC[C@@H](N)[C@H](F)CO3)ccc2F)c(F)c1)C1CC1 (stereo partly drawn) [Example 213, N-(5-((2S,5R,6S)-5-amino-6-fluorooxepan-2-yl)-1-methyl-1H-pyrazol-4-yl)-6-(4-(cyclopropyl(methoxy)methyl)-2,6-difluorophenyl)-5-fluoropicolinamide] | 10.11
Cn1ncc(NC(=O)c2csc(-c3ccncc3F)n2)c1[C@@H]1CC[C@@H](N)[C@H](F)CO1 [Example 300, N-(5-((2S,5R,6S)-5-amino-6-fluorooxepan-2-yl)-1-methyl-1H-pyrazol-4-yl)-2-(3-fluoropyridin-4-yl)thiazole-4-carboxamide] | 9.87
Cc1cccc(F)c1-c1nc(C(=O)Nc2cnn(C)c2[C@@H]2CC[C@@H](N)[C@H](F)CO2)cs1 [Example 315, N-(5-((2S,5R,6S)-5-amino-6-fluorooxepan-2-yl)-1-methyl-1H-pyrazol-4-yl)-2-(2-fluoro-6-methylphenyl)thiazole-4-carboxamide] | 10.04
Cn1ncc(NC(=O)c2nc(-c3cccc(Cl)c3F)sc2N)c1[C@@H]1CC[C@@H](N)[C@H](F)CO1 [Example 338, 5-amino-N-(5-((2S,5R,6S)-5-amino-6-fluorooxepan-2-yl)-1-methyl-1H-pyrazol-4-yl)-2-(3-chloro-2-fluorophenyl)thiazole-4-carboxamide] | 11.15
COc1cc(F)c(-c2nc(C(=O)Nc3cnn(C)c3[C@@H]3CC[C@@H](N)[C@@H](OC)CO3)cs2)c(F)c1 [Example 265, N-(5-((2S,5R,6R)-5-amino-6-methoxyoxepan-2-yl)-1-methyl-1H-pyrazol-4-yl)-2-(2,6-difluoro-4-methoxyphenyl)thiazole-4-carboxamide] | 10.47
CO[C@H]1CO[C@H](c2c(NC(=O)c3nc(-c4c(C)cccc4F)sc3N)cnn2C)CC[C@H]1N [Example 269, 5-amino-N-(5-((2S,5R,6R)-5-amino-6-methoxyoxepan-2-yl)-1-methyl-1H-pyrazol-4-yl)-2-(2-fluoro-6-methylphenyl)thiazole-4-carboxamide] | 10.28
Cn1ncc(NC(=O)c2csc(-c3ccc[nH]c3=O)n2)c1[C@@H]1CC[C@@H](N)[C@H](F)CO1 [Example 233, N-(5-((2S,5R,6S)-5-amino-6-fluorooxepan-2-yl)-1-methyl-1H-pyrazol-4-yl)-2-(2-oxo-1,2-dihydropyridin-3-yl)thiazole-4-carboxamide] | 9.99
C[C@H](O)c1cc(F)c(-c2nc(C(=O)Nc3cnn(C)c3[C@@H]3CC[C@@H](N)[C@H](F)CO3)cs2)c(F)c1 [Example 305, N-(5-((2S,5R,6S)-5-amino-6-fluorooxepan-2-yl)-1-methyl-1H-pyrazol-4-yl)-2-(2,6-difluoro-4-((S)-1-hydroxyethyl)phenyl)thiazole-4-carboxamide] | 11.10
Cn1ncc(NC(=O)c2csc(-c3cncc(F)c3)n2)c1[C@@H]1CC[C@@H](N)[C@@H](F)CO1 [Example 246, N-(5-((2S,5R,6R)-5-amino-6-fluorooxepan-2-yl)-1-methyl-1H-pyrazol-4-yl)-2-(5-fluoropyridin-3-yl)thiazole-4-carboxamide] | 8.24
COCCOc1cc(F)c(-c2nc(C(=O)Nc3cnn(C)c3[C@@H]3CC[C@@H](N)[C@@H](F)CO3)ccc2F)c(F)c1 [Example 189, N-(5-((2S,5R,6R)-5-Amino-6-fluorooxepan-2-yl)-1-methyl-1H-pyrazol-4-yl)-6-(2,6-difluoro-4-(2-methoxyethoxy)phenyl)-5-fluoropicolinamide] | 10.60
Cn1ncc(NC(=O)c2csc(-c3c(F)cccc3F)n2)c1[C@H]1CC[C@H](N)[C@@H](O)CO1 [Example 353, N-(5-((2R,5S,6R)-5-amino-6-hydroxyoxepan-2-yl)-1-methyl-1H-pyrazol-4-yl)-2-(2,6-difluorophenyl)thiazole-4-carboxamide] | 9.95
COCCOc1cc(F)c(-c2nc(C(=O)Nc3cnn(C)c3[C@@H]3CC[C@@H](N)[C@H](F)CO3)ccc2F)c(F)c1 [Example 192, N-(5-((2S,5R,6S)-5-amino-6-fluorooxepan-2-yl)-1-methyl-1H-pyrazol-4-yl)-6-(2,6-difluoro-4-(2-methoxyethoxy)phenyl)-5-fluoropicolinamide] | 10.64
